According to BindingDB's records for doi:10.1021/acs.jmedchem.9b01161 (Research Triangle Institute, 2019):

Tests used:
[1] = biological target: T1, Cannabinoid receptor 1 (Homo sapiens, UniProt P21554); experiment: Allosteric modulator activity at human CB1 receptor expressed in HEK293 cell membranes assessed as suppression of 100 nM CP55,940-induced [35S]GTPgammaS binding incubated for 60 mins by scintillation counting method
[2] = biological target: T1, Cannabinoid receptor 1; experiment: Allosteric modulator activity at human CB1 receptor expressed in CHO-RD-HGA16 cells co-expressing Galpha16 assessed as suppression of 100 nM CP55,940-induced calcium mobilization pre-incubated for 15 mins by Calcium 5 dye based FLIPR assay

T1 sequence (P21554 whole entry): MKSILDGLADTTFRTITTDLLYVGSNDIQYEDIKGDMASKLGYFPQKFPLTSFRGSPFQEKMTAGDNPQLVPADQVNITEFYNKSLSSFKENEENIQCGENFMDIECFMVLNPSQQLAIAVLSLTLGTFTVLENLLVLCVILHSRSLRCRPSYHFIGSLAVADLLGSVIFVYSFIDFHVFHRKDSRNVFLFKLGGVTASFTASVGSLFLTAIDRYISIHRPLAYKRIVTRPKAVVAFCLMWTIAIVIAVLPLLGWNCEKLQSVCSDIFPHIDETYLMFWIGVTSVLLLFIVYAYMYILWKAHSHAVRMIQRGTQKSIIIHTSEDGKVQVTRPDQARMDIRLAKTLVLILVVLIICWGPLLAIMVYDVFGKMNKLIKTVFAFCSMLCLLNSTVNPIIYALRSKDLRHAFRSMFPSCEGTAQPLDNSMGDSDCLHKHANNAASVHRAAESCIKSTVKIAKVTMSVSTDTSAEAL

| IC50 [2] | SMILES | IC50 [1] |
| --- | --- | --- |
| – | COc1ccc(-c2cccc(N3CCCC3)n2)cc1NC(=O)Nc1ccc(Cl)cc1 | > 10 µM |
| > 10 µM | O=C(Nc1ccc(Cl)cc1)N[C@H]1C[C@H]1c1ccccc1 | > 10 µM |
